These results are taken from ChEMBL document CHEMBL5137035 (Eur J Med Chem, 2022).

For series [1], the system named is HCT-116. Description: Antiproliferative activity against human HCT-116 cells expressing human DHODH assessed as reduction in cell viability measured after 96 hrs by MTT assay. As to conditions: HCT-116, 96 h. In kind it is functional, cell-based.
The test system of series [2] is A-375. Briefly: Antiproliferative activity against human A375 cells expressing human DHODH assessed as reduction in cell viability measured after 96 hrs by MTT assay. Type of series: functional, cell-based. To be noted: A-375, 96 h.
For series [3], the system named is U-937. Briefly: Antiproliferative activity against human U-937 cells expressing human DHODH assessed as reduction in cell viability measured after 96 hrs by MTT assay. Type of series: functional, cell-based. As to conditions: U-937, 96 h.
The target in series [4] is T1, Dihydroorotate dehydrogenase (quinone), mitochondrial (Homo sapiens, UniProt Q02127). Briefly: Inhibition of human N-terminal SUMO-tagged DHODH expressed in Escherichia coli BL21(DE3) using dihydroorotate substrate by DCIP based microplate reader analysis.
T1 sequence (Q02127 whole entry): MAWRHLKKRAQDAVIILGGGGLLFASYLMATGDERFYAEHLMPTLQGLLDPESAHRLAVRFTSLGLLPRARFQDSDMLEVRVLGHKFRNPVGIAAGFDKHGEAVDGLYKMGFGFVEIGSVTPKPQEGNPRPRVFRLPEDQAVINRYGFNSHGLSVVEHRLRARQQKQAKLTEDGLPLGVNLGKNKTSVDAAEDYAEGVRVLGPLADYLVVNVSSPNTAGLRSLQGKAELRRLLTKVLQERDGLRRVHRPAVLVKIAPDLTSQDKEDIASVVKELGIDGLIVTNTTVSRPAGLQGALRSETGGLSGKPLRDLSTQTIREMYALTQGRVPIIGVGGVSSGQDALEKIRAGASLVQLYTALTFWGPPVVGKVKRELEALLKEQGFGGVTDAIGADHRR
Series [5] has as its system Raji. Briefly: Antiproliferative activity against human Raji cells assessed as cell growth inhibition measured after 96 hrs by MTT assay. In kind it is functional, cell-based.
The nature of series [6]: Renal toxicity in BALB/c mouse assessed as change in blood uric acid level at 300 mg/kg, po measured after 14 days by biochemical assay. Type of series: organism-based. As to conditions: in vivo, 336 h, time 14 day.
The subject of series [7] is SUD4. Briefly: Antiproliferative activity against human SU-DHL-4 cells expressing human DHODH assessed as reduction in cell viability measured after 96 hrs by MTT assay. Type of series: functional, cell-based. To be noted: SU-DHL-4, 96 h.
Series [8] deals with Kasumi 1. Briefly: Antiproliferative activity against human Kasumi 1 cells expressing human DHODH assessed as reduction in cell viability measured after 96 hrs by MTT assay. As to conditions: Kasumi 1, 96 h. Type of series: functional, cell-based.
Series [9] is described as follows: Cytotoxicity against human HCoEpiC cells expressing human DHODH assessed as reduction in cell viability measured after 96 hrs by MTT assay. Type of series: toxicity, cell-based.
Series [10] concerns KG-1. Briefly: Antiproliferative activity against human KG-1 cells expressing human DHODH assessed as reduction in cell viability measured after 96 hrs by MTT assay. In kind it is functional, cell-based. As to conditions: KG-1, 96 h.
Series [11] is described as follows: Hepatotoxicity in BALB/c mouse assessed as change in blood ALP level at 300 mg/kg, po measured after 14 days by biochemical assay. In kind it is toxicity, organism-based. As to conditions: in vivo, 336 h, time 14 day.
Series [12] concerns the target T1, Dihydroorotate dehydrogenase (quinone), mitochondrial. Briefly: Inhibition of human N-terminal SUMO-tagged DHODH expressed in Escherichia coli BL21(DE3) at 1 uM using dihydroorotate as substrate by DCIP based microplate reader analysis relative to control.
Series [13] in a line: Hepatotoxicity in BALB/c mouse assessed as change in blood ALT level at 300 mg/kg, po measured after 14 days by biochemical assay. In kind it is toxicity, organism-based. To be noted: in vivo, 336 h, time 14 day.
Series [14] is described as follows: Acute toxicity in BALB/c mouse assessed as average body weight at 300 mg/kg, po measured after 14 days. In kind it is organism-based. As to conditions: in vivo, 336 h, time 14 day.
Series [15] in a line: Hepatotoxicity in BALB/c mouse assessed as change in blood AST level at 300 mg/kg, po measured after 14 days by biochemical assay. Type of series: toxicity, organism-based. As to conditions: in vivo, 336 h, time 14 day.
Series [16] is described as follows: Cytotoxicity against human HL7702 cells expressing human DHODH assessed as reduction in cell viability measured after 96 hrs by MTT assay. Type of series: toxicity, cell-based. As to conditions: HL7702 (L02) cells expressing human DHODH.
Series [17] addresses T1, Dihydroorotate dehydrogenase (quinone), mitochondrial. Briefly: Inhibition of human N-terminal SUMO-tagged DHODH expressed in Escherichia coli BL21(DE3) at 100 nM using dihydroorotate as substrate by DCIP based microplate reader analysis relative to control.
Series [18] is described as follows: Renal toxicity in BALB/c mouse assessed as change in blood uric acid level at 400 mg/kg, po measured after 14 days by biochemical assay. Type of series: organism-based. To be noted: in vivo, 336 h, time 14 day.
Series [19] can be described thus: Toxicity in BALB/c mouse xenografted with HCT-116 cells assessed as side effect at 30 mg/kg, po and measured at 18 day. In kind it is organism-based. As to conditions: in vivo, 432 h.
Series [20] can be described thus: Toxicity in BALB/c mouse assessed as histopathological changes in heart at 400 mg/kg, po measured after 14 days by H and E staining analysis. In kind it is organism-based. To be noted: in vivo, 336 h, time 14 day.
Series [21] in a line: Hepatotoxicity in BALB/c mouse assessed as change in blood ALP level at 400 mg/kg, po measured after 14 days by biochemical assay. Type of series: toxicity, organism-based. To be noted: in vivo, 336 h, time 14 day.
The nature of series [22]: Acute toxicity in BALB/c mouse assessed as animal death at 400 mg/kg, po measured at 2 days. In kind it is organism-based. To be noted: in vivo, 48 h, time 2 day.
A short description of series [23]: Toxicity in BALB/c mouse assessed as histopathological changes in liver at 400 mg/kg, po measured after 14 days by H and E staining analysis. Type of series: organism-based. As to conditions: in vivo, 336 h, time 14 day.
Series [24] is described as follows: Toxicity in BALB/c mouse assessed as adverse effect at 400 mg/kg, po measured for 14 days. In kind it is organism-based. To be noted: in vivo, 336 h, time 14 day.
Series [25] in a line: Toxicity in BALB/c mouse assessed as histopathological changes in lungs at 400 mg/kg, po measured after 14 days by H and E staining analysis. As to conditions: in vivo, 336 h, time 14 day. In kind it is organism-based.
For series [26], the system named is HCT-116. Briefly: Antitumor activity against human HCT-116 cells xenografted in nude mouse assessed as tumor growth inhibition at 30 mg/kg, po. In kind it is functional. To be noted: read-out: TGI.
Series [27] can be described thus: Toxicity in BALB/c mouse assessed as histopathological changes in kidney at 400 mg/kg, po measured after 14 days by H and E staining analysis. To be noted: in vivo, 336 h, time 14 day. Type of series: organism-based.
Series [28] in a line: Toxicity in BALB/c mouse assessed as histopathological changes in spleen at 400 mg/kg, po measured after 14 days by H and E staining analysis. Type of series: organism-based. To be noted: in vivo, 336 h, time 14 day.
Series [29] can be described thus: Toxicity in BALB/c mouse xenografted with HCT-116 cells assessed as animal death at 30 mg/kg, po and measured at 18 day. In kind it is organism-based. As to conditions: in vivo, 432 h.

Turning to `CCC(C)Oc1cc(NC(=O)/C(C#N)=C(/C)O)c(F)cc1-c1cccc(C(F)(F)F)c1` (configuration not stated), the IC50 was found to be 270 nM in series [1]; 500 nM in series [2]; 560 nM in series [3]; 7.9 nM in series [4]; 45.5 nM in [5]; 300 nM in series [7]. The results for the half-maximal inhibitory concentration (IC50) in series [8] and in series [10] were 500 nM and 990 nM, respectively. For the same compound, the Activity result is “Toxic” in series [6]; “Toxic” in series [11]; “Toxic” in series [13]; 17.3 g in series [14]; “Toxic” in [15]. The IC50 at 96 h in series [9] and in series [16] was more than 10000 nM in each case. Further, the results for the inhibition in series [12] and in series [17] were 99.3% and 92.4%, respectively.

As for `C/C(O)=C(\C#N)C(=O)Nc1cc(OC(C)C)c(-c2cccc(C(F)(F)F)c2)cc1F`, the Activity result in [18] is given as “Toxic”; in [19], “Non-Toxic”; in [20] it was “Non-Toxic”; in series [21], “Toxic”; in series [22] it was “Toxic”; in [23], “Non-Toxic”. Also, the Activity result in [24], in series [25], in [27], in series [28] and in series [29] was “Non-Toxic” each time. The 50% inhibitory concentration (IC50) in series [1] is 300 nM; in series [4] it was 10.2 nM; in series [5], 70.1 nM. In [26], the inhibition in vivo at 30 mg/kg was determined as 54.4%.
